From US20140364431A1, “Quinoline and cinnoline derivatives and their applications” (Shenyang Pharmaceutical University, priority 2011, published 2014)
Converted amounts (≈) assume the structure as drawn. Read-outs that look alike come from different tables or passages of the source.

Legend:
[1] = test system: H460 (human lung cancer cell); test: In vitro anti-tumor cellular activity (MTT), H460; assay type: cell-based; details: for IC50: Homo sapiens, read-out: H460 IC50
[2] = test system: U87MG (Human malignant glioblastoma cells); test: In vitro anti-tumor cellular activity (MTT), U87MG; assay type: cell-based; details: for IC50: Homo sapiens, U-87 MG, read-out: U87MG IC50
[3] = test system: HT-29 (colon cancer cell); test: In vitro anti-tumor cellular activity (MTT), HT-29; assay type: cell-based, human; details: for IC50: Homo sapiens, read-out: HT-29 IC50
[4] = test system: MKN-45 (human gastric carcinoma cell); test: In vitro anti-tumor cellular activity (MTT), MKN-45; assay type: cell-based; details: for IC50: Homo sapiens, read-out: MKN-45 IC50
[5] = test system: SMMC-7721 (hepatoma cell); test: In vitro anti-tumor cellular activity (MTT), SMMC-7721; assay type: cell-based, human; details: for IC50: Homo sapiens, read-out: SMMC-7721 IC50
[6] = target: T1, c-Met (His-tagged recombinant human Met (Amino acids 974-ends)) (Homo sapiens, UniProt P08581); test: c-Met kinase assay (ELISA); assay type: biochemical; details: 50 pM c-Met, 5 μM ATP, 20 min
T1 construct: His-tagged recombinant human Met (Amino acids 974-ends); His; host or cells: baculovirus expression
Protocol: c-Met kinase activity was measured with an ELISA reader.
The reaction mixture was removed by washing with 0.2 μg/mL conjugated horseradish peroxidase (HRP) monoclonal antibody specific for phosphotyrosine (PY20) detecting phosphorylation of the substrate polymer. 1M phosphoric acid was added to terminate the color, the chromogenic substrate (TMB) was tested by spectrophotometry at 450 nm.

T1 sequence (P08581 974-1390 limits assumed): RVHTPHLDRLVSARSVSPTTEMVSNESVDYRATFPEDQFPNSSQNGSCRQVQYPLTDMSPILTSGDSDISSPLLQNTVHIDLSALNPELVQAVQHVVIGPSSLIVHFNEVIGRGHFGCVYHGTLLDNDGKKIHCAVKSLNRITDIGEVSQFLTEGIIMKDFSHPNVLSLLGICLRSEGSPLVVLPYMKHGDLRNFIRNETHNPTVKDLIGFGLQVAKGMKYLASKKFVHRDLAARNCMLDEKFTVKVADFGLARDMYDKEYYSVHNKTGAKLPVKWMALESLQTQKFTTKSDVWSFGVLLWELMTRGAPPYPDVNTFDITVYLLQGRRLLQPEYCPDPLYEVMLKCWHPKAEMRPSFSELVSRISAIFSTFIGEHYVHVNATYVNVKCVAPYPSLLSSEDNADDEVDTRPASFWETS

Row | Compound | IC50 ([1]; NCI-H460, MTT, 72 hours, H460) [µg/mL] | IC50 ([2]; MTT, 72 hours, U87MG) [µg/mL] | IC50 ([3]; MTT, 72 hours, HT-29) [µg/mL] | IC50 ([5]; MTT, 72 hours, SMMC-7721) [µg/mL] | IC50 [6] [µM] | IC50 ([1]; NCI-H460, 72 h) [µg/mL] | IC50 ([2]; 72 h) [µg/mL] | IC50 ([3]; HT-29, 72 h) [µg/mL] | IC50 ([5]; SMMC-7721, 72 h) [µg/mL] | other results
1 | COc1cc2c(Oc3ccc(NC(=O)c4nn(-c5cc(C(F)(F)F)ccc5Cl)c5ccccc5c4=O)cc3F)ccnc2cc1OCCCN1CCC(C)CC1 [Example 21, N-(3-fluoro-4-((6-methoxy-7-(3-(4-methylpiperidin-1-yl)propoxy)quinolin-4-yl)oxy)phenyl)-1-(2-chloro-5-(trifluoromethyl)phenyl)-4-oxo-1,4-dihydrocinnoline-3-carboxamide] | 0.8 (≈ 1.01 µM) | 0.7 (≈ 0.886 µM) | 0.8 (≈ 1.01 µM) | 1.4 (≈ 1.77 µM) | 1.14 |  |  |  |  | IC50 ([4]; MTT, 72 hours, MKN-45): 0.6 µg/mL (≈ 0.759 µM)
2 | COc1cc2c(Oc3ccc(NC(=O)c4nn(-c5c(Cl)cccc5Cl)c5ccccc5c4=O)cc3F)ccnc2cc1OCCCN1CCN(C)CC1 [Example 32, N-(3-fluoro-4-((6-methoxy-7-(3-(4-methylpiperazin-1-yl)propoxy)quinolin-4-yl)oxy)phenyl)-1-(2,6-dichlorophenyl)-4-oxo-1,4-dihydrocinnoline-3-carboxamide] |  |  |  |  | 0.132 | 0.7 (≈ 0.924 µM) | 0.65 (≈ 0.858 µM) | 0.77 (≈ 1.02 µM) | 0.66 (≈ 0.871 µM) | IC50 ([4]; MKN-45, 72 h): 1.2 µg/mL (≈ 1.58 µM)
3 | COc1cc2c(Oc3ccc(NC(=O)c4nn(-c5cc(C(F)(F)F)ccc5Cl)c5ccccc5c4=O)cc3F)ccnc2cc1OCCCN1CCCCC1 [Example 20, N-(3-fluoro-4-((6-methoxy-7-(3-(piperidin-1-yl)propoxy)quinolin-4-yl)oxy)phenyl)-1-(2-chloro-5-(trifluoromethyl)phenyl)-4-oxo-1,4-dihydrocinnoline-3-carboxamide] | 1.1 (≈ 1.42 µM) | 1.3 (≈ 1.67 µM) | 0.7 (≈ 0.902 µM) | 0.5 (≈ 0.644 µM) | 1.93 |  |  |  |  | IC50 ([4]; MTT, 72 hours, MKN-45): 1.6 µg/mL (≈ 2.06 µM)
4 | N-(3-fluoro-4-((6-methoxy-7-(3-(piperidin-1-yl)propoxy)quinolin-4-yl)oxy)phenyl)-1-(4-fl uorophenyl)-4-oxo-1,4-dihydroquinoline-3-carboxamide dihydrochloride [Example 49] |  |  |  |  |  |  |  |  |  | H460 IC50 ([1]; MTT, 72 hours, H460): 1.1 µg/mL; U87MG IC50 ([2]; MTT, 72 hours, U87MG): 0.9 µg/mL; HT-29 IC50 ([3]; MTT, 72 hours, HT-29): 1.3 µg/mL; MKN-45 IC50 ([4]; MTT, 72 hours, MKN-45): 0.76 µg/mL; SMMC-7721 IC50 ([5]; MTT, 72 hours, SMMC-7721): 0.99 µg/mL; c-Met IC50 [6]: 0.6 µg/mL
5 | COc1cc2c(Oc3ccc(NC(=O)c4cn(-c5ccccc5F)c5ccccc5c4=O)cc3F)ccnc2cc1OCCCN1CCC(C)CC1 [Example 47, N-(3-fluoro-4-((6-methoxy-7-(3-(4-methylpiperidin-1-yl)propoxy)quinolin-4-yl)oxy)phenyl)-1-(2-fluorophenyl)-4-oxo-1,4-dihydroquinoline-3-carboxamide] | 0.54 (≈ 0.766 µM) | 0.49 (≈ 0.695 µM) | 0.57 (≈ 0.809 µM) | 1.1 (≈ 1.56 µM) | 0.568 |  |  |  |  | IC50 ([4]; MTT, 72 hours, MKN-45): 0.34 µg/mL (≈ 0.482 µM)
6 | COc1cc2c(Oc3ccc(NC(=O)c4nn(-c5ccc(Cl)cc5)c5ccccc5c4=O)cc3F)cnnc2cc1OCCCN1CCC(C)CC1 [Example 67, N-(3-fluoro-4-((6-methoxy-7-(3-(4-methylpiperidin-1-yl)propoxy)cinnolin-4-yl)oxy)phenyl)-1-(4-chlorophenyl)-4-oxo-1,4-dihydrocinnoline-3-carboxamide] | 2.5 (≈ 3.46 µM) | 1.7 (≈ 2.35 µM) | 0.96 (≈ 1.33 µM) | 1.6 (≈ 2.21 µM) | 1.52 |  |  |  |  | IC50 ([4]; MTT, 72 hours, MKN-45): 2.2 µg/mL (≈ 3.04 µM)
7 | COc1cc2c(Oc3ccc(NC(=O)c4cn(-c5ccccc5Cl)c5ccccc5c4=O)cc3F)ccnc2cc1OCCCN1CCCC1 [Example 55, N-(3-fluoro-4-((6-methoxy-7-(3-(pyrrolidin-1-yl)propoxy)quinolin-4-yl)oxy)phenyl)-1-(2-chlorophenyl)-4-oxo-1,4-dihydroquinoline-3-carboxamide] |  |  |  |  | 1.3 | 0.74 (≈ 1.07 µM) | 0.18 (≈ 0.26 µM) | 0.37 (≈ 0.534 µM) | 0.53 (≈ 0.765 µM) | IC50 ([4]; MKN-45, 72 h): 0.29 µg/mL (≈ 0.418 µM)
8 | COc1cc2c(Oc3ccc(NC(=O)c4nn(-c5ccc(Br)cc5)c5ccccc5c4=O)cc3F)cnnc2cc1OCCCN1CCCCC1 [Example 65, N-(3-fluoro-4-((6-methoxy-7-(3-(piperidin-1-yl)propoxy)cinnolin-4-yl)oxy)phenyl)-1-(4-bromophenyl)-4-oxo-1,4-dihydrocinnoline-3-carboxamide] |  |  |  |  | 0.902 |  |  |  |  | 
9 | COc1cc2c(Oc3ccc(NC(=O)c4nn(-c5ccccc5F)c5ccccc5c4=O)cc3F)cnnc2cc1OCCCN1CCCC1 [Example 63, N-(3-fluoro-4-((6-methoxy-7-(3-(pyrrolidin-1-yl)propoxy)cinnolin-4-yl)oxy)phenyl)-1-(2-fluorophenyl)-4-oxo-1,4-dihydrocinnoline-3-carboxamide] | 1.6 (≈ 2.36 µM) | 1.8 (≈ 2.65 µM) | 1.3 (≈ 1.92 µM) | 0.9 (≈ 1.33 µM) | 1.18 |  |  |  |  | 
10 | COc1cc2c(Oc3ccc(NC(=O)c4cn(-c5ccc(F)c(F)c5)c5ccccc5c4=O)cc3F)ccnc2cc1OCCCN1CCCCC1 [Example 60, N-(3-fluoro-4-((6-methoxy-7-(3-(piperidin-1-yl)propoxy)quinolin-4-yl)oxy)phenyl)-1-(3,4-difluorophenyl)-4-oxo-1,4-dihydroquinoline-3-carboxamide] |  |  |  |  | 0.409 |  |  |  |  | 
11 | COc1cc2c(Oc3ccc(NC(=O)c4nn(-c5ccc(Cl)cc5Cl)c5ccccc5c4=O)cc3F)cnnc2cc1OCCCN1CCCC1 [Example 70, N-(3-fluoro-4-((6-methoxy-7-(3-(pyrrolidin-1-yl)propoxy)cinnolin-4-yl)oxy)phenyl)-1-(2,4-dichlorophenyl)-4-oxo-1,4-dihydrocinnoline-3-carboxamide] |  |  |  |  | 0.959 | 2.6 (≈ 3.56 µM) | 2.1 (≈ 2.88 µM) | 3.2 (≈ 4.39 µM) | 1.8 (≈ 2.47 µM) | 
12 | N-(3-fluoro-4-((6-methoxy-7-(3-(4-methylpiperazin-1-yl)propoxy)quinolin-4-yl)oxy)phenyl)-1-(4-bromophenyl)-4-oxo-1,4-dihydrocinnoline-3-carboxamide [Example 40] |  |  |  |  |  |  |  |  |  | c-Met IC50 [6]: 0.9 µg/mL
13 | COc1cc2c(Oc3ccc(NC(=O)c4nn(-c5ccccc5F)c5ccccc5c4=O)cc3F)ccnc2cc1OCCCN1CCCC1 [Example 41, N-(3-fluoro-4-((6-methoxy-7-(3-(pyrrolidin-1-yl)propoxy)quinolin-4-yl)oxy)phenyl)-1-(2-fluorophenyl)-4-oxo-1,4-dihydrocinnoline-3-carboxamide] |  |  |  |  | 2.07 |  |  |  |  | 
14 | COc1cc2c(Oc3ccc(NC(=O)c4nn(-c5ccc(F)cc5)c5ccccc5c4=O)cc3F)ccnc2cc1OCCCN1CCN(C)CC1 [Example 42, N-(3-fluoro-4-((6-methoxy-7-(3-(4-methylpiperazin-1-yl)propoxy)quinolin-4-yl)oxy)phenyl)-1-(4-fluorophenyl)-4-oxo-1,4-dihydrocinnoline-3-carboxamide] | 2.7 (≈ 3.82 µM) | 2.1 (≈ 2.97 µM) | 1.5 (≈ 2.12 µM) | 1.6 (≈ 2.26 µM) | 1.41 |  |  |  |  | 
15 | N-(3-fluoro-4-((6-methoxy-7-(3-(4-methylpiperidin-1-yl)propoxy)quinolin-4-yl)oxy)phenyl)-1-(4-fluorophenyl)-4-oxo-1,4-dihydrocinnoline-3-carboxamide [Example 13] |  |  |  |  |  |  |  |  |  | H460 IC50 ([1]; MTT, 72 hours, H460): 0.081 µg/mL; U87MG IC50 ([2]; MTT, 72 hours, U87MG): 0.45 µg/mL; HT-29 IC50 ([3]; MTT, 72 hours, HT-29): 0.18 µg/mL; MKN-45 IC50 ([4]; MTT, 72 hours, MKN-45): 0.23 µg/mL; SMMC-7721 IC50 ([5]; MTT, 72 hours, SMMC-7721): 0.67 µg/mL
16 | COc1cc2c(Oc3ccc(NC(=O)c4nn(-c5ccccc5OC(F)(F)F)c5ccccc5c4=O)cc3F)ccnc2cc1OCCCN1CCOCC1 [Example 37, N-(3-fluoro-4-((6-methoxy-7-(3-(morpholin-4-yl)propoxy)quinolin-4-yl)oxy)phenyl)-1-(2-(trifluoromethoxy)phenyl)-4-oxo-1,4-dihydrocinnoline-3-carboxamide] |  |  |  |  |  | 1.9 (≈ 2.5 µM) | 2.1 (≈ 2.76 µM) | 0.9 (≈ 1.18 µM) | 1.5 (≈ 1.97 µM) | IC50 ([4]; MKN-45, 72 h): 2.3 µg/mL (≈ 3.03 µM)
17 | COc1cc2c(Oc3ccc(NC(=O)c4nn(-c5cccc(F)c5)c5ccccc5c4=O)cc3F)ccnc2cc1OCCCN1CCCCC1 [Example 9, N-(3-fluoro-4-((6-methoxy-7-(3-(piperidin-1-yl)propoxy)quinolin-4-yl)oxy)phenyl)-1-(3-fluorophenyl)-4-oxo-1,4-dihydrocinnoline-3-carboxamide] |  |  |  |  |  | 0.007 (≈ 0.0101 µM) | 1.2 (≈ 1.73 µM) | 0.17 (≈ 0.246 µM) | 0.65 (≈ 0.94 µM) | IC50 ([4]; MKN-45, 72 h): 0.0075 µg/mL (≈ 0.0108 µM)
18 | COc1cc2c(Oc3ccc(NC(=O)c4nn(-c5c(Cl)cccc5Cl)c5ccccc5c4=O)cc3F)ccnc2cc1OCCCN1CCC(C)CC1 [Example 30, N-(3-fluoro-4-((6-methoxy-7-(3-(4-methylpiperidin-1-yl)propoxy)quinolin-4-yl)oxy)phenyl)-1-(2,6-dichlorophenyl)-4-oxo-1,4-dihydrocinnoline-3-carboxamide] |  |  |  |  |  | 0.7 (≈ 0.925 µM) | 0.27 (≈ 0.357 µM) | 0.49 (≈ 0.648 µM) | 0.1 (≈ 0.132 µM) | IC50 ([4]; MKN-45, 72 h): 0.5 µg/mL (≈ 0.661 µM)
